Where two headings read alike, the source gives them in different places.
Legend:
ERα [1] = biological target: ERα (Homo sapiens, UniProt P03372)
Method: (§1) Yeast two-hybrid experiments are carried out in the yeast strain (MATa; his3-Δ200; leu2-3,112; trp1-901; [plexAop]4::HIS3; [plexAop]8::lacZ), in which expression of the two reporter genes HIS3 and LacZ is under the control of the LexA operator sequence. This yeast strain cannot grow in absence of histidine in the culture medium, and yeast growth can be rescued only if expression of HIS3 gene is induced. Similarly, the LacZ reporter gene encoding the β-galactosidase marker is not expressed in this yeast strain. The bait plasmids encoding either the full-length or a region of the target protein (Nuclear Receptor, viral proteins for example), and the random peptide/VP16-AD library were transformed into the yeast strain and yeast colonies growing in absence of histidine were selected. […] Growth of false positive clones may be prevented by adding 3-amino-triazole (3AT), a competitive inhibitor of HIS3, to the medium. […] All conformation sensitive peptides dissociated by both target protein agonists and antagonists were selected for further characterization with the aim to develop screening platforms that allow the search of both activators and inhibitors of target protein in one single assay. The biological activity of each isolated conformation sensitive peptide is reconfirmed by isolation of conformation sensitive peptide encoding plasmids, re-transformation into yeast strain and analysis of HIS3 and lacZ gene expression in absence of histidine and in presence of target protein or non-target protein ligands in a spot test, as well as in a quantitative LacZ assay. 4.1—Identification in Yeast of Conformation Sensitive Peptides Interacting with the Estrogen Receptor
The bait plasmids encoding the full length or the DEF regions of the ERα and the prey peptide/VP16-AD VV01 library (diversity of 6.10^7) were transformed into the yeast strain. Yeast colonies growing in absence of histidine were selected. […] Growth of false positive clones was prevented by adding 3-amino-triazole (3AT), a competitive inhibitor of HIS3 to the medium. […] Out of the 484 clones, 40 were randomly picked for further studies.
The biological activity of each isolated 3D-Screen peptide was reconfirmed by isolation of 3D-Screen encoding plasmids, retransformation into the yeast strain (MATa; his3-Δ200; leu2-3,112; trp1-901; [plexAop]4::HIS3; [plexAop]8::lacZ) and analysis of HIS3 and lacZ gene expression in absence of Histidine and in presence of ER or non-ER ligands in a spot test.

ERα [2] = test system: ERα
Source text: FIG. 10: Generation of a 3D-screen human cell screening platform for ERα Hela cells are transiently transfected with three expression plasmids encoding the reporter gene luciferase (eg. UAS-Luc), the target protein fused to a DNA Binding Domain (DBD) and the conformation sensitive peptide previously screened in yeast and fused to the VP16-AD, respectively with the jetPEI reagent. […] This platform was used to screen a small molecule library.
Hela cells are transiently transfected with three expression plasmids encoding the reporter gene luciferase (eg. UAS-Luc), the ERα fused to a DNA Binding Domain (DBD) and the conformation sensitive peptide previously screened in yeast and fused to the VP16-AD, respectively, with the jetPEI reagent. Cells are grown in the absence of any ligand (DMSO, lane 1; ethanol, lane 2), or in the presence of ER ligands (agonists E2, DES or antagonists 4OHT, lane 3-5) or non-ER ligands (Dex and 9C-RA; lanes 8 & 9), or in the presence of Estren (lane 6) at 100 nM (right panel) and 10 μM (left panel).
Hela cells are transiently transfected with three expression plasmids encoding the reporter gene luciferase (eg. UAS-Luc), the ERα fused to a DNA Binding Domain (DBD) and the conformation sensitive peptide previously screened in yeast and fused to the VP16-AD, respectively, with the jetPEI reagent.
HeLa cells were transiently transfected with plasmid using the optimized jetPEI transfection protocol (PolyPlus Transfection, Illkirch, France). […] Chemical ligands are added to the cell culture medium 24H after transfection. Luciferase activity was measured 24H later. […] Cells are trypsinised and plated in 96 well-plates (or 384 well-plates) at 5×10^4 cells per well 24H after transfection, and small molecules are added upon cell adhesion. Luciferase activity is measured 24 H later.
The three expression plasmids, UAS-luc, full-length ER and 3D-screen/VP16AD (#30-2) were co-transfected in Hela cells in large dishes. Cells were then reseeded in a 96-well plate format 24 H after transfection and chemical compounds are added upon cell adhesion. Luciferase activity was measured 24 H later. Internal controls were also included, consisting in known ER- or non-ER ligands as previously indicated.

[3] = biological target: human retinoic acid receptor alpha (RARα) (Homo sapiens, UniProt P10276); conditions: RAR-DEF bait, 28 selected clones, medium without histidine
Method: as §1

[4] = biological target: NS5B protein of Hepatitis C virus (Hepatitis C virus genotype 1b, UniProt P26663); conditions: NS5BΔ21 bait, medium without Histidine; Gliotoxin 20 μM
Method: Yeast two-hybrid experiments are carried out in the yeast strain (MATa; his3-Δ200; leu2-3,112; trp1-901; [plexAop]4::HIS3; [plexAop]8::lacZ), in which expression of the two reporter genes HIS3 and LacZ is under the control of the LexA operator sequence. This yeast strain cannot grow in absence of histidine in the culture medium, and yeast growth can be rescued only if expression of HIS3 gene is induced. Similarly, the LacZ reporter gene encoding the β-galactosidase marker is not expressed in this yeast strain. The bait plasmids encoding either the full-length or a region of the target protein (Nuclear Receptor, viral proteins for example), and the random peptide/VP16-AD library were transformed into the yeast strain and yeast colonies growing in absence of histidine were selected. […] Growth of false positive clones may be prevented by adding 3-amino-triazole (3AT), a competitive inhibitor of HIS3, to the medium. […] The biological activity of each isolated conformation sensitive peptide is reconfirmed by isolation of conformation sensitive peptide encoding plasmids, re-transformation into yeast strain and analysis of HIS3 and lacZ gene expression in absence of histidine and in presence of target protein or non-target protein ligands in a spot test, as well as in a quantitative LacZ assay. […]

wild-type ERα = wild-type ERα (Homo sapiens, UniProt P03372); conditions: HeLa, ERE-luc, 24 H
Method: Furthermore, the potential agonist and antagonist properties of these hits were investigated in HeLa cells by co-transfection of an ERE-luc reporter plasmid, in which the luciferase gene is under the control of the estrogen-responsive elements (ERE), and an expression plasmid encoding the wild-type ERα. Transfections were performed as previously described for the primary screening, and cells are inclubated for 24 H either in the presence of the chemical hits alone to test for their agonist activity, or in the presence of the hit together with 100 nM E2 to test for their antagonist activity.

bone cells = conditions: cited from earlier work

ERα (Homo sapiens, UniProt P03372), sequence (P03372 311-547 limits assumed): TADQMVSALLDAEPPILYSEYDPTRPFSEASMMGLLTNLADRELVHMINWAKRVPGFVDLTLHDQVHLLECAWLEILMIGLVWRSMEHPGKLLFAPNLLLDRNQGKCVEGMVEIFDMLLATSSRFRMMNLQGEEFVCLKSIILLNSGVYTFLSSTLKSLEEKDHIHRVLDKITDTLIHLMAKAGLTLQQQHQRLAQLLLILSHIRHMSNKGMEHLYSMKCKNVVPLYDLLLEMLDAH
human retinoic acid receptor alpha (RARα), sequence (P10276 183-417 limits assumed): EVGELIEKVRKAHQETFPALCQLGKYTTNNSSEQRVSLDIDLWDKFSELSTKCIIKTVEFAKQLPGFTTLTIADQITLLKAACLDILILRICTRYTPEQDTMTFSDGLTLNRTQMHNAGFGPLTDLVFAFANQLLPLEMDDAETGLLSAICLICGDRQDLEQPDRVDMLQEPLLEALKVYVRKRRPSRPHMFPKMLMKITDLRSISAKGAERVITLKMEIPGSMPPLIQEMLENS
wild-type ERα, sequence (P03372 whole entry): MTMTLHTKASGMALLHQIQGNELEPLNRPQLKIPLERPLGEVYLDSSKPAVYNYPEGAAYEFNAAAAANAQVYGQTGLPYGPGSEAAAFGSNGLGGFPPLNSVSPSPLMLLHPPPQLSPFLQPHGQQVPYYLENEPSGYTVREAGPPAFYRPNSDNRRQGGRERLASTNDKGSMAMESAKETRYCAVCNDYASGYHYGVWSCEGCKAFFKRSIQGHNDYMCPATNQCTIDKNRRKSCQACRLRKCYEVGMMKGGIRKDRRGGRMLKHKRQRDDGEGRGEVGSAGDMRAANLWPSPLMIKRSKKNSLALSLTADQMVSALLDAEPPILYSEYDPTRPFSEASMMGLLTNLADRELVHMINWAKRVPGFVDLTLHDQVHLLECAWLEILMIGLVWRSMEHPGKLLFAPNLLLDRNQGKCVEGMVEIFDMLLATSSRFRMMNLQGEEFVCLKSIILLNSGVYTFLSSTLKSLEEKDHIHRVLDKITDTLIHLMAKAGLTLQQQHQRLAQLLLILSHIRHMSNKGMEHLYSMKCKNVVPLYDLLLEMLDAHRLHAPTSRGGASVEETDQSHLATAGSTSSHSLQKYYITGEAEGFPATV

## 9-cis retinoic acid
ERα [1]
  effect of added ligand on growth and LacZ expression of yeast clones (dissociation of peptide/VP16AD from ERα): no effect
ERα [2]
  luciferase expression (FIG. 11): strong
  luciferase expression (FIG. 13): strong
[3]
  effect of added ligand on growth of yeast clones (dissociation of peptide/VP16AD from RARα): suppresses the growth of 14 of these clones

## C[C@]12CC[C@@H]3c4ccc(O)cc4C[C@@H](CCCCCCCCC[S+]([O-])CCCC(F)(F)C(F)(F)F)[C@H]3[C@@H]1CC[C@@H]2O (stereo partly drawn) [ICI182780]
ERα [2]
  luciferase expression (FIG. 13): preventing the expression of luciferase
  luciferase expression upon addition of ligand: strongly reduced

## CC1=C(/C=C/C(C)=C/C=C/C(C)=C/C(=O)O)C(C)(C)CCC1 [all-trans-Retinoic Acid]
ERα [2]
  luciferase expression (FIG. 13): strong
[3]
  effect of added ligand on growth of yeast clones (dissociation of peptide/VP16AD from RARα): suppresses the growth of 14 of these clones
[3]; listed as AT-RA
  effect of added ligand on growth of yeast clones (dissociation of peptide/VP16AD from RARα): selective dissociation of the peptide/VP16AD protein induced only by the AT-RA ligand

## CN1C(=O)[C@]23CC4=CC=C[C@H](O)[C@H]4N2C(=O)[C@@]1(CO)SS3 [gliotoxin]
[4]
  effect of added compound on yeast growth and HIS3/LacZ expression (dissociation of peptides from NS5B): shut-off of HIS3 and the prevention of growth of the yeast

## NC(=O)c1ncn([C@@H]2O[C@H](CO)[C@@H](O)[C@H]2O)n1 [ribavirin]
[4]
  effect of added compound on yeast growth and HIS3/LacZ expression (dissociation of peptides from NS5B): no effect on yeast growth

## Estren
ERα [2]
  luciferase expression (FIG. 11): preventing the expression of luciferase
wild-type ERα
  agonist activity (hit alone): do not allow the identification
  antagonist activity (hit together with 100 nM E2): do not allow the identification
Bone cells
  apoptosis of bone cells and effect on reproductive organs: prevent apoptosis of bone cells without affecting the reproductive organs

## F C T P I R M F Y R A P L W D L N K [peptide 30-2]
ERα [1]
  peptide binding to ER in the presence of non-ER ligands (growth, lacZ): all clones are growing under selective conditions and stain positive for lacZ
  peptide binding to ER on addition of ER ligands (growth under selective conditions): clones are not growing under selective conditions
  reporter genes (His3 and LacZ) on interaction of peptide with ER in the un-liganded form: clones are growing under selective conditions and stain positive for lacZ

## S C C T Q H V C Y R P R A Y R [peptide 5-21]
ERα [1]
  peptide binding to ER in the presence of non-ER ligands (growth, lacZ): all clones are growing under selective conditions and stain positive for lacZ
  peptide binding to ER on addition of ER ligands (growth under selective conditions): clones are not growing under selective conditions
  reporter genes (His3 and LacZ) on interaction of peptide with ER in the un-liganded form: clones are growing under selective conditions and stain positive for lacZ

## S I T T L F Y H A M F G F V P [peptide 9-23]
ERα [1]
  peptide binding to ER in the presence of non-ER ligands (growth, lacZ): all clones are growing under selective conditions and stain positive for lacZ
  peptide binding to ER on addition of ER ligands (growth under selective conditions): clones are not growing under selective conditions
  reporter genes (His3 and LacZ) on interaction of peptide with ER in the un-liganded form: clones are growing under selective conditions and stain positive for lacZ
